# Read-outs that look alike come from different tables or passages of the source.
# Legend:
# pKa measurement = assay type: physicochemical
# [1] = system: SW620 human colon cancer cell; details: read-out: SW620 GI50; cited from earlier work
# hERG = hERG (Homo sapiens, UniProt Q12809); assay: in vitro
# [2] = assay type: in vitro ADME; details: human liver microsomes, 10 μM
# [3] = assay type: in vitro ADME; details: mouse liver microsomes, 10 μM
# Caco-2 assay = assay type: in vitro ADME
# [4] = system: MV4–11 human FLT3-ITD positive AML tumor xenografts; details: for days on which individual mice were culled (tumor volume increased by over 500%): control culled day 18
# [5] = system: histone H-3 phosphorylation at S10; assay: PK/PD study, tumor biomarker; assay type: in vivo, mouse; details: 50 and 100 mg/kg po b.i.d. 4 days, 2 h after the final dose
# [6] = system: Stat5 phosphorylation at Y694; assay: PK/PD study, tumor biomarker; assay type: in vivo, mouse; details: 50 and 100 mg/kg po b.i.d. 4 days, 2 h after the final dose
# In vivo rat PK = details: female, Sprague-Dawley, plasma, iv, 5 mg/kg
# hERG, sequence (Q12809 whole entry): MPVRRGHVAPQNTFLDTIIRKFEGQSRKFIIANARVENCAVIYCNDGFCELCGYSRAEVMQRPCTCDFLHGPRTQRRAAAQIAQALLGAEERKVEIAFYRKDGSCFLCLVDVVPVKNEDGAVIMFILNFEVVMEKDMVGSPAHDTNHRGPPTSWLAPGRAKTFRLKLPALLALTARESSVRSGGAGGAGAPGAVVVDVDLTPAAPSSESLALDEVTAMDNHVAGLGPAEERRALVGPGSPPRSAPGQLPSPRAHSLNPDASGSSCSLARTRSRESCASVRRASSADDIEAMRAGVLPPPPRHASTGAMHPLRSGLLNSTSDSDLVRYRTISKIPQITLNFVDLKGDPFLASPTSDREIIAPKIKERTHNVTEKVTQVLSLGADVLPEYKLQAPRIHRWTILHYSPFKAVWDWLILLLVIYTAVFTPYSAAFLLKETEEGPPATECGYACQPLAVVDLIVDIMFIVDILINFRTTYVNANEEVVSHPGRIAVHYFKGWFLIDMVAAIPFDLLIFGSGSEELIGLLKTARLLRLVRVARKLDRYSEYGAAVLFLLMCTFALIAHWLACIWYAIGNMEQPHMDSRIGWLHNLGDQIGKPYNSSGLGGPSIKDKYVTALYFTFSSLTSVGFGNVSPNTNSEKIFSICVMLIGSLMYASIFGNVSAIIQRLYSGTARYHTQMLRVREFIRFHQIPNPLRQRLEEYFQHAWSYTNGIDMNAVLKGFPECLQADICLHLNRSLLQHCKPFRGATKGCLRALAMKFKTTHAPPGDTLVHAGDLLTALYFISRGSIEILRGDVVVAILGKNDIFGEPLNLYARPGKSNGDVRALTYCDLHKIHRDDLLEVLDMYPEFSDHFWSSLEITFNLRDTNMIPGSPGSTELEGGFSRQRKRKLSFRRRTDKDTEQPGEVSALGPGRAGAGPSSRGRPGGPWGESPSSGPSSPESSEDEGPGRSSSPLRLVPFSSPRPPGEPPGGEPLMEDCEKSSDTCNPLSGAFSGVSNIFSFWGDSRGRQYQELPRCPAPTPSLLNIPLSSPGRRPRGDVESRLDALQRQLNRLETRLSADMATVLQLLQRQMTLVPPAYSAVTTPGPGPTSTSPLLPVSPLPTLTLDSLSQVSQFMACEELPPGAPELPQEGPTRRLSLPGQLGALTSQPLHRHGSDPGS
structure (smiles),measurement,setting,value
"COc1ccc(-c2nc3c(N4CCN(Cc5cc(C)on5)CC4)c(Br)cnc3[nH]2)cc1 [6-bromo-2-(4-methoxyphenyl)-7-[4-(5-methyl-isoxazol-3-ylmethyl)-piperazin-1-yl]-3H-imidazo[4,5-b]pyridine]",pKa,pKa measurement; acidic pKa of the imidazopyridine N3 proton,9.51
same,pKa,pKa measurement; pKa of the piperazine nitrogen bearing the 5-methylisoxazol-3-yl substituent,5.39
Cc1cc(CN2CCN(c3c(Br)cnc4nc(-c5ccc(N6CCN(C)CC6)cc5)[nH]c34)CC2)no1 [Compound 6],GI50,[1],300 nM
"Cc1cc(CN2CCN(c3c(Br)cnc4nc(-c5cncn5C)[nH]c34)CC2)no1 [Compound 21a, 3-((4-(6-Bromo-2-(1-methyl-1H-imidazol-5-yl)-3H-imidazo[4,5-b]pyridin-7-yl)piperazin-1-yl)methyl)-5-methylisoxazole]",inhibition at 10 µM,hERG,94%
"Cc1cc(CN2CCN(c3c(Cl)cnc4nc(-c5cnn(C)c5)[nH]c34)CC2)no1 [Compound 21i, 3-((4-(6-Chloro-2-(1-methyl-1H-pyrazol-4-yl)-3H-imidazo[4,5-b]pyridin-7-yl)piperazin-1-yl)methyl)-5-methylisoxazole]",HLM: Percentage of parent compound metabolized after a 30 min incubation,[2],10%
same,inhibition at 10 µM,hERG,67%
same,MLM: Percentage of parent compound metabolized after a 30 min incubation,[3],20%
"Cc1nn(C)cc1-c1nc2c(N3CCN(Cc4ccc(Cl)cc4)CC3)c(Cl)cnc2[nH]1 [Compound 27e, 6-Chloro-7-(4-(4-chlorobenzyl)piperazin-1-yl)-2-(1,3-dimethyl-1H-pyrazol-4-yl)-3H-imidazo[4,5-b]pyridine]",Caco-2 efflux,Caco-2 assay,no efflux
same,days on which individual mice were culled (tumor volume increased by over 500%),[4]; 50 mg/kg,days 28 and 31
same,tumors when therapy discontinued,"[4]; 100 mg/kg po b.i.d., after 11 days",undetectable
same,days on which individual mice were culled (tumor volume increased by over 500%),[4]; 100 mg/kg,days 46 and 56
same,toxicity as defined by body weight loss and general condition,[4]; 50 and 100 mg/kg po,no observed toxicity
same,inhibition of histone H-3 phosphorylation in tumor,[5],clear inhibition
same,inhibition of Stat5 phosphorylation in tumor,[6],clear inhibition
same,Vd,In vivo rat PK,0.369 L
